The values that follow come from article PMC4176481, “Influence of D-glutamine and D-glutamic acid sequences in optical peptide probes targeted against the cholecystokinin-2/gastrin-receptor on binding affinity, specificity and pharmacokinetic properties” (EJNMMI Research, 2013).

“And” between values parts separate entries of the source, which are not always exact repeats. Equal entries are not always repeated. “Also recorded” adds a separate entry of the source. Non-standard residues stand in square brackets, D forms with d. Residues, ends and D or L forms follow the SMILES beside them. *: point of attachment. X1 = CC(C)(C)c1cc(C=CC=CC=C2N(CCCS(=O)(=O)O)c3ccc(S(=O)(=O)O)cc3C2(C)CCCC(=O)*)c2cc3c(cc2[o+]1)N(CCCS(=O)(=O)O)C(C)(C)C=C3CS(=O)(=O)[O-]

One data set concerns A431/CCK2R tumours. Briefly: In vivo NIRF imaging of CCK2R-expressing xenografts. Details: species or system athymic nude mice. The text has this:
Female athymic nude mice (Hsd:Athymic Nude-Foxn1^nu nu/nu; Harlan Laboratories, Eystrup, Germany) were housed under standard conditions with water and food ad libitum. Mice were maintained under a low-pheophorbide diet (C 1039; Altromin, Lage, Germany) to reduce tissue autofluorescence. All procedures were approved by the regional animal committee (reg. number 02-007/10) and were in accordance with international guidelines on the ethical use of animals. Animals were anesthetized with 2% isoflurane during all procedures. To implement subcutaneous xenografts, 5 × 10^5 CCK2R transfected (A431/CCK2R) and non-transfected wild-type cells (A431/WT) were dispensed in Matrigel™ (BD Biosciences, Heidelberg, Germany) and injected into the right (A431/CCK2R cells) and left (A431/WT cells) flank of 8- to 12-week-old animals 10 to 15 days before in vivo imaging.
Xenografts were inoculated in athymic nude mice (Hsd:Athymic Nude-Foxn1^nu nu/nu; Harlan Laboratories) 10 to 15 days before imaging by subcutaneous injection of 0.5 million A431/CCK2R […] and A431/WT cells (right flank) dispersed in Matrigel™ (BD Biosciences). For in vivo fluorescence imaging, 108 nmol/kg QE or 54 nmol/kg bivQ probe was injected intravenously (i.v.), according to the results of a dose determination experiment, which was set up to identify the optimal relation between sensitivity and contrast (Additional file 1). […] Another group received 108 nmol/kg of the unconjugated fluorophore DY-754 to determine dye-mediated non-specific tumour uptake, and one group remained untreated to control for probe-unrelated NIR fluorescence in the animals. At defined time points between 0 and 8 h p.i., NIRF fluorescence images (excitation 615 to 665 nm, emission >750 nm) and white light images of the animals were obtained. By means of spectral unmixing, tissue autofluorescence was removed from the images. Subsequently, fluorescence intensities (FI) were analysed over the time in regions of interest (ROIs) that were placed upon the tumours and non-tumour tissue. As a measure of contrast between tumour and non-tumour fluorescence, tumour/background ratios (TBRs) were calculated as a quotient of FItumour/FInon-tumour.

The nature of data set [1]: Metabolic (protease) stability in mouse liver homogenates. As to conditions: mouse liver homogenate, incubation up to 180 min, HPLC with UV/VIS detection at 750 nm, three parallels. It is filed as in vitro ADME. The protocol:
Supplementary file 2191-219X-3-75-S3.pptx: Additional file 3: Metabolic (protease) stability of QE and bivQ against the degradation by mouse liver homogenates. The HPLC peak of non-degraded QE at 9.7 min elution time (a-I) decreased after 180 min of probe incubation in liver homogenate, whereas a second peak, representing degradation products, appeared at 7.2 min of elution (a-II). Degradation curves of (b) QE and (c) bivQ. […] Peaks were detected at 750 nm with a UV/VIS detector. Data represent three parallels. Click here for file
Supplementary file 2191-219X-3-75-S4.pptx: Additional file 4: Metabolic stability of the optical CCK2R targeted minigastrin dQ-MG-754 [[20]]. Degradation of dQ-MG-754 for comparison with QE and bivQ. […] Probe signal was detected at 750 nm with a UV/VIS detector. Data represent three parallels. Click here for file

The subject of data set [2] is A431/CCK2R and A431/WT tumours. Briefly: Ex vivo intratumoural probe distribution in cryosections (Odyssey scanner). Details: species or system athymic nude mice. Conditions: acetone-fixed 30-μm cryosections of explanted xenografts, three specimens/group. The text has this:
To determine intratumoural distribution of the peptide probes ex vivo, acetone-fixed 30-μm cryosections of explanted xenografts were scanned mesoscopically in the near-infrared scanner Odyssey® (LI-COR, Bad Homburg, Germany) at 700 nm (autofluorescence) and 800 nm (probe fluorescence).

The next data set relates to A431/CCK2R cells. Description: Target binding and internalization in vitro, fluorescence microscopy. The format is cell-based, human. As to conditions: 0.5 μM, 30 min. The protocol:
(§1) Binding of the optical probes QE and bivQ to CCK2R-expressing (A431/CCK2R) and CCK2R-non-expressing (A431/WT) cells was investigated after incubation with 0.5 μM of each probe in culture medium for 30 min at 4°C to observe active surface receptor binding and at 37°C to check for internalization behaviour, which is mandatory for in vivo signal amplification. Incubation with 0.5 μM of the fluorochrome DY-754 should determine the role of the interaction of the peptide with the CCK2R for probe uptake. Probe incubation was followed by cell membrane staining with wheat germ agglutinin-Alexa Fluor®-555 (WGA-555, Invitrogen, Carlsbad, CA, USA), fixation in 4% (v/v) paraformaldehyde on ice and mounting in PermaFluor® Mounting medium (Thermo Fisher, Waltham, MA, USA), containing 0.2 μg/mL Hoechst 33258 (Applichem, Darmstadt, Germany) to stain cell nuclei. Fluorescence microscopy was carried out with the digital microscope EVOSfl (AMG, Bothell, WA, USA) equipped with three filter cubes for visualization of Hoechst (excitation 335 to 379 nm, emission 417 to 477 nm), WGA-555 (excitation 511 to 551 nm, emission 573 to 613 nm) and DY-754 (excitation 690 to 730 nm, emission 752 to 798 nm).

Another data set relates to A431/WT cells. Briefly: Target binding in vitro, fluorescence microscopy, CCK2R-non-expressing cells. The format is cell-based, human. Conditions: 0.5 μM, 30 min. The protocol:
as §1

The nature of data set [3]: Biodistribution, ex vivo NIRF of organs and xenografts 8 h p.i. The format is in vivo, athymic nude mice. Here is the method:
We investigated the biodistribution of the optical probes and of the fluorochrome DY-754 to determine the influence of the dye on tumour and organ accumulation. Therefore, 8 h p.i., ex vivo NIRF fluorescence images of the organs and the two xenografts (A431/CCK2R and A431/WT) per mouse were taken in combination with the placement of ROIs on these organs to assess semiquantitative fluorescence intensities.

The test system of another data set is A431/WT tumours. Description: In vivo NIRF imaging of CCK2R-negative xenografts. Conditions: 1 to 8 h p.i.; i.v. 108 nmol/kg QE or 54 nmol/kg bivQ; n = 5. Details: species or system athymic nude mice. The text has this: Female athymic nude mice (Hsd:Athymic Nude-Foxn1^nu nu/nu; Harlan Laboratories, Eystrup, Germany) were housed under standard conditions with water and food ad libitum. Mice were maintained under a low-pheophorbide diet (C 1039; Altromin, Lage, Germany) to reduce tissue autofluorescence. All procedures were approved by the regional animal committee (reg. number 02-007/10) and were in accordance with international guidelines on the ethical use of animals. Animals were anesthetized with 2% isoflurane during all procedures. […]
Xenografts were inoculated in athymic nude mice (Hsd:Athymic Nude-Foxn1^nu nu/nu; Harlan Laboratories) 10 to 15 days before imaging by subcutaneous injection of 0.5 million A431/CCK2R (left flank) and A431/WT cells (right flank) dispersed in Matrigel™ (BD Biosciences). For in vivo fluorescence imaging, 108 nmol/kg QE or 54 nmol/kg bivQ probe was injected intravenously (i.v.), according to the results of a dose determination experiment, which was set up to identify the optimal relation between sensitivity and contrast (Additional file 1). […] Another group received 108 nmol/kg of the unconjugated fluorophore DY-754 to determine dye-mediated non-specific tumour uptake, and one group remained untreated to control for probe-unrelated NIR fluorescence in the animals. […]

Another data set has as its target T1, CCK2R (A431/CCK2R cells) (Homo sapiens, UniProt P32239).
T1 construct: expressed in transfected cells; host or cells: A431 human epidermoid carcinoma cells, stably transfected (gift from Dr. Luigi Aloj)
T1 sequence (P32239 1-447): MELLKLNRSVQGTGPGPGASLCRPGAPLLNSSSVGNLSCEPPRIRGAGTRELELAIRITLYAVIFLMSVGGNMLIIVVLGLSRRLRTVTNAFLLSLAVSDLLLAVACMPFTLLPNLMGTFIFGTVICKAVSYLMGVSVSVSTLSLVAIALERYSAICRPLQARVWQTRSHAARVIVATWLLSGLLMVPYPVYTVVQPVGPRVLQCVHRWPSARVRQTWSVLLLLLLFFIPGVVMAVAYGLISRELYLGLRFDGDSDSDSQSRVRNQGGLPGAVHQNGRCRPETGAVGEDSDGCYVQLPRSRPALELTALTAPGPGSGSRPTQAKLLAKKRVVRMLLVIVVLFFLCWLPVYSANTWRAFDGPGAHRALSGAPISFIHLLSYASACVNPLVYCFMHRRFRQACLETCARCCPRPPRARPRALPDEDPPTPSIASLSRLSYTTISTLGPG
Details: method as in PMID 23591397. As to conditions: earlier probe with a spacer of six uncharged D-glutamines; read-out: dissociation constant Kd; cited from earlier work.

On to `CSCC[C@H](NC(=O)[C@H](Cc1c[nH]c2ccccc12)NC(=O)CNC(=O)[C@H](Cc1ccc(O)cc1)NC(=O)[C@H](C)NC(=O)[C@@H](CCC(=O)O)NC(=O)[C@@H](CCC(N)=O)NC(=O)[C@@H](CCC(=O)O)NC(=O)[C@@H](CCC(N)=O)NC(=O)[C@@H](CCC(=O)O)NC(=O)[C@@H](CCC(N)=O)NC(=O)CCCC1(C)C(=CC=CC=Cc2cc(C(C)(C)C)[o+]c3cc4c(cc23)C(CS(=O)(=O)[O-])=CC(C)(C)N4CCCS(=O)(=O)O)N(CCCS(=O)(=O)O)c2ccc(S(=O)(=O)O)cc21)C(=O)N[C@@H](CC(=O)O)C(=O)N[C@@H](Cc1ccccc1)C(N)=O` (stereo partly shown) [QE] (X1-[dQ][dE][dQ][dE][dQ][dE]AYGWMDF-NH2), for which the “TBR, A431/CCK2R xenografts, under competition” value with A431/CCK2R tumours (8 h p.i., co-injection of 10-fold molar excess of non-fluorescent minigastrin, mean ± SD, n = 5) came to 4.4 ± 0.9. In the data set on A431/CCK2R tumours (8 h p.i., i.v. 108 nmol/kg QE or 54 nmol/kg bivQ, mean ± SD, n = 5), the “tumour/background ratio (TBR), A431/CCK2R xenografts” value is given as 6.2 ± 1.0. Besides, in the data set with A431/CCK2R tumours (high-contrast imaging, discussion summary), the “TBR, CCK2R-expressing xenografts (summary bound)” value is over 6. In addition, the “metabolic stability against degradation by liver proteases” value in data set [1] is listed as “more stable than bivQ; also recorded: highly stable”. Further, in data set [2], the “intratumoural fluorescence at 800 nm in tumour sections” value is given as “only in the outer A431/CCK2R tumour regions”. Moreover, the “probe localisation in A431/CCK2R cells at 4°C” value with A431/CCK2R cells (4°C) is given as “restricted to the cell membrane”. Further, the “binding and internalization in A431/CCK2R cells at 37°C” value in the data set with A431/CCK2R cells (37°C, n = 3) is “binding and internalization”. Also, in the data set with A431/WT cells, the “binding to A431/WT cells (no CCK2R expression)” value is listed as “no binding”. Besides, in data set [3] (n = 5), the “fluorescence accumulation in stomach, small intestine and colon” value is reported as “no fluorescence accumulation”; the “uptake in the liver compared to free DY-754” value is “weakly elevated uptake”. Further, the “uptake into A431/WT tumours (biodistribution)” value in data set [3] (n = 5, comparably high for DY-754 (p > 0.05)) was “weak uptake”. Besides, the “TBR, A431/WT tumours” value in the data set on A431/WT tumours was ~2 and < 2.

A word on the Kd: it is the equilibrium constant for the complex coming apart. In the case of “dQ-MG-754: previously published optical minigastrin probe with a spacer of six uncharged D-glutamines and DY-754 (ref 20) (QQQQQQAYGWMDF; not fully specified; Synthetic minigastrin analogue; Residues 1-6 are D-Gln (the text states a spacer of six D-glutamines))”, the Kd with CCK2R (A431/CCK2R cells) is 1.8 ± 0.6 nM.
